Results reported in ChEMBL document CHEMBL1201862, “PubChem BioAssay data set” (2004).
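1) Cells in 96-well plates. 2) Compound, 48 h, 5 concentrations. 3) Linear interpolation between surrounding doses. 4) Unreached endpoint = highest concentration. GI50 marks 50% less growth.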 Active and inactive are the calls of the source. Cut-off read from the data, not from the text of the source: active = GI50 up to about 1.1 µM and inactive = higher.

Key:
Assay in all cases: NCI tumour cell line growth inhibition, 48 h
786-0 = tested on: 786-0
A498 = tested on: A498
A549 = tested on: A549
ACHN = tested on: ACHN
BT-549 = tested on: BT-549
CAKI-1 = tested on: CAKI-1
CCRF-CEM = tested on: CCRF-CEM
COLO 205 = tested on: COLO 205
DU-145 = tested on: DU-145
EKVX = tested on: EKVX
HCC 2998 = tested on: HCC 2998
HCT-116 = tested on: HCT-116
HCT-15 = tested on: HCT-15
HL-60 = tested on: HL-60
HOP-62 = tested on: HOP-62
HOP-92 = tested on: HOP-92
HT-29 = tested on: HT-29
Hs-578T = tested on: Hs-578T
IGROV-1 = tested on: IGROV-1
K562 = tested on: K562
LOX IMVI = tested on: LOX IMVI
M14 = tested on: M14
MCF7 = tested on: MCF7
MDA-MB-231 = tested on: MDA-MB-231
MDA-MB-435 = tested on: MDA-MB-435
MDA-N = tested on: MDA-N
MOLT-4 = tested on: MOLT-4
Malme-3M = tested on: Malme-3M
NCI-H226 = tested on: NCI-H226
NCI-H23 = tested on: NCI-H23
NCI-H460 = tested on: NCI-H460
NCI-H522 = tested on: NCI-H522
NCI/ADR-RES = tested on: NCI/ADR-RES
OVCAR-3 = tested on: OVCAR-3
OVCAR-4 = tested on: OVCAR-4
OVCAR-5 = tested on: OVCAR-5
OVCAR-8 = tested on: OVCAR-8
PC-3 = tested on: PC-3
RPMI-8226 = tested on: RPMI-8226
RXF 393 = tested on: RXF 393
SF-268 = tested on: SF-268
SF-295 = tested on: SF-295
SF-539 = tested on: SF-539
SK-MEL-28 = tested on: SK-MEL-28
SK-MEL-2 = tested on: SK-MEL-2
SK-MEL-5 = tested on: SK-MEL-5
SN12C = tested on: SN12C
SNB-19 = tested on: SNB-19
SNB-75 = tested on: SNB-75
SR = tested on: SR
SW-620 = tested on: SW-620
T47D = tested on: T47D
TK-10 = tested on: TK-10
U-251 = tested on: U-251
UACC-257 = tested on: UACC-257
UACC-62 = tested on: UACC-62
KM12 = tested on: KM12
SK-OV-3 = tested on: SK-OV-3
UO-31 = tested on: UO-31

CCOC(=O)CCc1c(C)c2ccc(O)cc2oc1=O
GI50 (786-0): > 100 µM (inactive) | GI50 (A498): > 100 µM (inactive) | GI50 (A549): > 100 µM (inactive) | GI50 (ACHN): > 100 µM (inactive) | GI50 (BT-549): > 100 µM (inactive) | GI50 (CAKI-1): > 100 µM (inactive) | GI50 (CCRF-CEM): > 100 µM (inactive) | GI50 (COLO 205): > 100 µM (inactive) | GI50 (DU-145): > 100 µM (inactive) | GI50 (EKVX): > 100 µM (inactive) | GI50 (HCC 2998): > 100 µM (inactive) | GI50 (HCT-116): > 100 µM (inactive) | GI50 (HCT-15): > 100 µM | GI50 (HL-60): > 100 µM (inactive) | GI50 (HOP-62): > 100 µM (inactive) | GI50 (HOP-92): > 100 µM (inactive) | GI50 (HT-29): > 100 µM (inactive) | GI50 (Hs-578T): > 100 µM (inactive) | GI50 (IGROV-1): > 100 µM (inactive) | GI50 (K562): > 100 µM (inactive) | GI50 (LOX IMVI): > 100 µM (inactive) | GI50 (M14): > 100 µM (inactive) | GI50 (MCF7): > 100 µM (inactive) | GI50 (MDA-MB-231): > 100 µM (inactive) | GI50 (MDA-MB-435): > 100 µM (inactive) | GI50 (MDA-N): > 100 µM (inactive) | GI50 (MOLT-4): > 100 µM (inactive) | GI50 (Malme-3M): > 100 µM (inactive) | GI50 (NCI-H226): > 100 µM (inactive) | GI50 (NCI-H23): > 100 µM (inactive) | GI50 (NCI-H460): > 100 µM (inactive) | GI50 (NCI-H522): > 100 µM (inactive) | GI50 (NCI/ADR-RES): > 100 µM (inactive) | GI50 (OVCAR-3): > 100 µM (inactive) | GI50 (OVCAR-4): > 100 µM (inactive) | GI50 (OVCAR-5): > 100 µM (inactive) | GI50 (OVCAR-8): > 100 µM (inactive) | GI50 (PC-3): > 100 µM (inactive) | GI50 (RPMI-8226): > 100 µM (inactive) | GI50 (RXF 393): > 100 µM (inactive) | GI50 (SF-268): > 100 µM (inactive) | GI50 (SF-295): > 100 µM (inactive) | GI50 (SF-539): > 100 µM (inactive) | GI50 (SK-MEL-28): > 100 µM (inactive) | GI50 (SK-MEL-2): > 100 µM (inactive) | GI50 (SK-MEL-5): > 100 µM (inactive) | GI50 (SN12C): > 100 µM (inactive) | GI50 (SNB-19): > 100 µM (inactive) | GI50 (SNB-75): > 100 µM (inactive) | GI50 (SR): > 100 µM (inactive) | GI50 (SW-620): > 100 µM (inactive) | GI50 (T47D): > 100 µM (inactive) | GI50 (TK-10): > 100 µM (inactive) | GI50 (U-251): > 100 µM (inactive) | GI50 (UACC-257): > 100 µM (inactive) | GI50 (UACC-62): > 100 µM (inactive)

CCc1nnc2sc(-c3ccc(-c4ccccc4[N+](=O)[O-])o3)nn12
GI50 (786-0): 54.8 µM (inactive) | GI50 (A498): 54 µM (inactive) | GI50 (A549): 36.5 µM (inactive) | GI50 (ACHN): 62.2 µM (inactive) | GI50 (BT-549): 36.6 µM (inactive) | GI50 (CAKI-1): 66.4 µM (inactive) | GI50 (CCRF-CEM): 26.9 µM (inactive) | GI50 (COLO 205): 34.9 µM (inactive) | GI50 (DU-145): 66.2 µM (inactive) | GI50 (EKVX): 21.6 µM (inactive) | GI50 (HCC 2998): 50.1 µM (inactive) | GI50 (HCT-116): 37.3 µM (inactive) | GI50 (HCT-15): 30.1 µM | GI50 (HL-60): 24 µM (inactive) | GI50 (HOP-62): 87.9 µM (inactive) | GI50 (HOP-92): 84.7 µM (inactive) | GI50 (HT-29): 35.6 µM (inactive) | GI50 (Hs-578T): 54.3 µM (inactive) | GI50 (IGROV-1): 47.9 µM (inactive) | GI50 (K562): 27.7 µM (inactive) | GI50 (KM12): 30.8 µM (inactive) | GI50 (LOX IMVI): 36.2 µM (inactive) | GI50 (M14): 37.6 µM (inactive) | GI50 (MCF7): 19.7 µM (inactive) | GI50 (MDA-MB-231): 53.1 µM (inactive) | GI50 (MDA-MB-435): 20.3 µM (inactive) | GI50 (MDA-N): 19.9 µM (inactive) | GI50 (MOLT-4): 19.5 µM (inactive) | GI50 (Malme-3M): > 100 µM (inactive) | GI50 (NCI-H226): 14.4 µM (inactive) | GI50 (NCI-H23): 32.9 µM (inactive) | GI50 (NCI-H460): 31 µM (inactive) | GI50 (NCI-H522): 37.4 µM (inactive) | GI50 (NCI/ADR-RES): 27 µM (inactive) | GI50 (OVCAR-3): 32.1 µM (inactive) | GI50 (OVCAR-4): 53.1 µM (inactive) | GI50 (OVCAR-5): 62.2 µM (inactive) | GI50 (OVCAR-8): 50.7 µM (inactive) | GI50 (PC-3): 42.9 µM (inactive) | GI50 (RPMI-8226): 20.7 µM (inactive) | GI50 (RXF 393): 57.9 µM (inactive) | GI50 (SF-268): 49.1 µM (inactive) | GI50 (SF-295): 32.6 µM (inactive) | GI50 (SF-539): 29.7 µM (inactive) | GI50 (SK-MEL-2): 28.1 µM (inactive) | GI50 (SK-MEL-5): 27.7 µM (inactive) | GI50 (SK-OV-3): 40 µM (inactive) | GI50 (SN12C): 53 µM (inactive) | GI50 (SNB-19): 75.3 µM (inactive) | GI50 (SNB-75): > 100 µM (inactive) | GI50 (SR): 20.1 µM (inactive) | GI50 (SW-620): 34 µM (inactive) | GI50 (T47D): 36.3 µM (inactive) | GI50 (TK-10): 75.7 µM (inactive) | GI50 (U-251): 40.6 µM (inactive) | GI50 (UACC-257): 61.7 µM (inactive) | GI50 (UACC-62): 45.7 µM (inactive) | GI50 (UO-31): 41.9 µM (inactive)
